According to US10406146B2, “Heterocyclic compound” (TAKEDA PHARMACEUTICAL COMPANY LIMITED, priority 2015, dated 2019):

Key:
Assay type in all cases: biochemical
[1] = biological target: T1, HDAC9 enzyme (Homo sapiens, UniProt Q9UKV0); assay: HDAC9 enzyme inhibitory assay (HDAC-Glo class IIa); conditions: wells without enzyme = 100% inhibition, read-out: HDAC9 inhibitory rate (%) (1 μM)
T1 construct: transducing full length HDAC9 gene into Sf-9 insect cells; made in house; host or cells: Sf-9 insect cells
T1 sequence (Q9UKV0 whole entry, species assumed): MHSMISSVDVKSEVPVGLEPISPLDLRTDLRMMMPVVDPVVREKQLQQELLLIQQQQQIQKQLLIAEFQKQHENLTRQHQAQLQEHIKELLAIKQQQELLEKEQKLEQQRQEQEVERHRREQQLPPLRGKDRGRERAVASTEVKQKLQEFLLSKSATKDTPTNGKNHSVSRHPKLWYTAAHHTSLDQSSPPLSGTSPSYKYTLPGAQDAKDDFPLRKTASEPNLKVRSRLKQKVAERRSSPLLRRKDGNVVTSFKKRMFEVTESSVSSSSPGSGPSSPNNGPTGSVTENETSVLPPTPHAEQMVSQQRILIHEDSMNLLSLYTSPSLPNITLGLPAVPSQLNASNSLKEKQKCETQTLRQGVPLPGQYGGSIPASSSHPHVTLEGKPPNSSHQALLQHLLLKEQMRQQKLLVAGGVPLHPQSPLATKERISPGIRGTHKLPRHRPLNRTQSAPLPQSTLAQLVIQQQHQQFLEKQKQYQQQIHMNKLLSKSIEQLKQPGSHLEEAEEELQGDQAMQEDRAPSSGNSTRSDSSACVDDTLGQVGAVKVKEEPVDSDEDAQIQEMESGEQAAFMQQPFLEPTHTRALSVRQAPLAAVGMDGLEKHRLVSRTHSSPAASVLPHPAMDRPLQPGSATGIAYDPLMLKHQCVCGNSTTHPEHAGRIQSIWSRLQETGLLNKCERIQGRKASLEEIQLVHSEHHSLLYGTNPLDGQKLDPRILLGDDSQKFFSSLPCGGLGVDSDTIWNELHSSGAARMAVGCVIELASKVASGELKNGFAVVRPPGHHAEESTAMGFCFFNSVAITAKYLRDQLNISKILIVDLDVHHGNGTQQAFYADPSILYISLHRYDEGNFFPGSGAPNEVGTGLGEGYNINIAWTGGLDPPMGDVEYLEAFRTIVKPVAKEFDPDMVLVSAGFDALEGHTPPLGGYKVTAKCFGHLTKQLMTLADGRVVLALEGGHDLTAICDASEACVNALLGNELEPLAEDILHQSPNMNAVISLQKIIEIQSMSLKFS
Description: HDAC9 Enzyme Inhibitory Assay
Enzyme was prepared by transducing full length HDAC9 gene into Sf-9 insect cells and purifying by Ni-NTA affinity column, and HDAC9 enzyme inhibitory activity was evaluated. Enzymes were used after preserved at −70° C. HDAC9 enzyme inhibitory activity of the test compound was measured using HDAC-Glo class IIa (Promega) according to the following experimental method. The test compound diluted with assay buffer (24 mM Tris-HCl (pH 7.5), 1 mM MgCl2, 0.35 mM KCl, 135 mM NaCl, 0.6 mM Glutathione, 0.01% Tween-20) was added to a 384-well plate by each 2 μL. Then, HDAC9 enzyme solution diluted with assay buffer was added thereto by each 2 μL, and the plate was incubated at room temperature for 60 min. After incubated, HDAC substrate-Developer solution prepared according to Promega protocol was added to the 384-well plate by each 4 μL, and the enzyme reaction was started. After reacting at room temperature for 20 min, luminescence level was measured using plate reader Envision (PerkinElmer). The inhibitory activity of each compound was calculated as a relative activity value when luminescence level in wells without enzyme is considered as 100% inhibition.

[2] = biological target: T2, HDAC6 enzyme (Homo sapiens, UniProt Q9UBN7); assay: HDAC6 enzyme inhibitory assay (HDAC-Glo I/II Assay kit); conditions: wells without enzyme = 100% inhibition, read-out: HDAC6 inhibitory rate (%) (1 μM)
T2 construct: transducing full length HDAC1 and HDAC6 genes into Sf-9 insect cells; GST; purchased SignalChem; host or cells: Sf-9 insect cells
T2 sequence (Q9UBN7 1-1215): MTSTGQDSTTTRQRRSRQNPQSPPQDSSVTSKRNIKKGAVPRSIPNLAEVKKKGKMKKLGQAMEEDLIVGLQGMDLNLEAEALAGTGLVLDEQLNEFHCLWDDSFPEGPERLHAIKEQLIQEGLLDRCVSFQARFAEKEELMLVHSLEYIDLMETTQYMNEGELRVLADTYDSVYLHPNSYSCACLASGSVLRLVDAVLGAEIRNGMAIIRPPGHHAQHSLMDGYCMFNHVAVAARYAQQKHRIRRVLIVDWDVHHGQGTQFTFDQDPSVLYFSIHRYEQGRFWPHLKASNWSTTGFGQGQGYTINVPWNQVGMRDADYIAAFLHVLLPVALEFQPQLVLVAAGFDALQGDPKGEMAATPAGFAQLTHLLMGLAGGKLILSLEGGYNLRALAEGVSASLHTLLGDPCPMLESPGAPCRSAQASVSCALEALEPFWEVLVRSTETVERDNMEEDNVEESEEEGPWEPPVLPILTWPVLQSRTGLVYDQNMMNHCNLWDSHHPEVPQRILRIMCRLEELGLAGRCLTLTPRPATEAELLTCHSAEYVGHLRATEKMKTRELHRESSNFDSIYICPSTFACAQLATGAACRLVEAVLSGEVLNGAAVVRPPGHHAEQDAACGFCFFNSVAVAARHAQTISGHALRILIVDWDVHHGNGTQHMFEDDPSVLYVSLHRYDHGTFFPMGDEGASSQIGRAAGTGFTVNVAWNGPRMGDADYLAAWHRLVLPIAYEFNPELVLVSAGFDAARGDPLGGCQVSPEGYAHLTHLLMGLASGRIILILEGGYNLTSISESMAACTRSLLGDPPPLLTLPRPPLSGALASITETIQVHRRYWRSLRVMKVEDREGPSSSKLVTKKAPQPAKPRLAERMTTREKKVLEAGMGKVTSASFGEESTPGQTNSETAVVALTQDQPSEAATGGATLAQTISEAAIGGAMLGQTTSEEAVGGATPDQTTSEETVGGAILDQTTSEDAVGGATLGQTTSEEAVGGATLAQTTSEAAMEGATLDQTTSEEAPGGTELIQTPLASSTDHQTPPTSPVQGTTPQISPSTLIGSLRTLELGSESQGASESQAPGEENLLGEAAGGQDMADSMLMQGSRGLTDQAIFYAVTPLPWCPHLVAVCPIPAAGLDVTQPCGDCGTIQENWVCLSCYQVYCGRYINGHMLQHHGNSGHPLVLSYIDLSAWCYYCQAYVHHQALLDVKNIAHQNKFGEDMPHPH
Description: (§1) HDAC1/6 Enzyme Inhibitory Assay
(§2) HDAC1 enzyme and HDAC6 enzyme each prepared by transducing full length HDAC1 and HDAC6 genes into Sf-9 insect cells and purifying by GST affinity column were purchased from SignalChem. Using these enzymes, HDAC1 and/or HDAC6 enzyme inhibitory activities of the compound of the present invention were evaluated. Enzymes were used after preserved at −70° C. HDAC1 or HDAC6 enzyme inhibitory activity of the compound of the present invention was measured using HDAC-Glo™ I/II Assay kit (Promega) according to the following experimental method. The test compound diluted with assay buffer (24 mM Tris-HCl (pH 7.5), 1 mM MgCl2, 0.35 mM KCl, 135 mM NaCl, 0.6 mM Glutathione, 0.01% Tween-20) was added to a 384-well plate by each 2 μL. Then, HDAC1 or HDAC6 enzyme solution diluted with assay buffer was added thereto by each 4 μL, and the plate was incubated at room temperature for 60 min. After incubated, HDAC substrate-Developer solution prepared according to Promega protocol attached to the assay kit was added to the 384-well plate by each 2 μL, and the enzyme reaction was started. After reacting at room temperature for 20 min, luminescence level was measured using plate reader Envision (PerkinElmer). The inhibitory activity of each compound was calculated as a relative activity value when luminescence level in wells without enzyme is considered as 100% inhibition.

[3] = biological target: T3, HDAC1 enzyme (Homo sapiens, UniProt Q13547); assay: HDAC1 enzyme inhibitory assay (HDAC-Glo I/II Assay kit); conditions: wells without enzyme = 100% inhibition, read-out: HDAC1 inhibitory rate (%) (1 μM)
T3 construct: transducing full length HDAC1 and HDAC6 genes into Sf-9 insect cells; GST; purchased SignalChem; host or cells: Sf-9 insect cells
T3 sequence (Q13547 whole entry): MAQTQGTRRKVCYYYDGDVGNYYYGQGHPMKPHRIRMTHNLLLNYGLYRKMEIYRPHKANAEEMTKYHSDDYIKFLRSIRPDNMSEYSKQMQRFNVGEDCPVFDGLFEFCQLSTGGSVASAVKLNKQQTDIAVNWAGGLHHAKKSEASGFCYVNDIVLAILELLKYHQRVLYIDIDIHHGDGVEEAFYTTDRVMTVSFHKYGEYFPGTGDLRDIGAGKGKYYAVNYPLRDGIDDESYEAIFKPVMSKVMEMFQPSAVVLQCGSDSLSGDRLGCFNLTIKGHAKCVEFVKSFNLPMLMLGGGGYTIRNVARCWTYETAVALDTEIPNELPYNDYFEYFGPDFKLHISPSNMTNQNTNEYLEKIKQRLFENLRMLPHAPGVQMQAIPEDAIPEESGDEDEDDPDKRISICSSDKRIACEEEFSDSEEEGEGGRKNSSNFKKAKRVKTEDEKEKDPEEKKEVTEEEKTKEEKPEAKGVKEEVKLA
Description: as §1, §2

SMILES | inhibition at 1 µM [1] [%] | inhibition at 1 µM [2] [%] | inhibition at 1 µM [3] [%]
O=C(NCC1CCCCN1C(=O)Nc1ccc(-c2noc(C(F)(F)F)n2)cc1)c1cccc(Cl)c1Cl (stereo not drawn) [Example 30, 2-(((2,3-dichlorobenzoyl)amino)methyl)-N-(4-(5-(trifluoromethyl)-1,2,4-oxadiazol-3-yl)phenyl)piperidine-1-carboxamide] | 70 | 1 | 4
Cn1nccc1C(=O)NC[C@H]1COCCN1C(=O)Nc1ccc(-c2noc(C(F)(F)F)n2)cc1 [Example 62, (3S)-3-((((1-methyl-1H-pyrazol-5-yl)carbonyl)amino)methyl)-N-(4-(5-(trifluoromethyl)-1,2,4-oxadiazol-3-yl)phenyl)morpholine-4-carboxamide] | 92 | 6 | 53
CN(C)c1cccc(C(=O)NCC2CCCCN2C(=O)Nc2ccc(-c3noc(C(F)(F)F)n3)cc2)c1 (stereo not drawn) [Example 28, 2-(((3-(dimethylamino)benzoyl)amino)methyl)-N-(4-(5-(trifluoromethyl)-1,2,4-oxadiazol-3-yl)phenyl)piperidine-1-carboxamide] | 86 | 2 | 4
Cc1ccnc(C(=O)NCC2CCCCN2C(=O)Nc2ccc(-c3noc(C(F)(F)F)n3)cc2)c1 (stereo not drawn) [Example 56, 4-methyl-N-((1-((4-(5-(trifluoromethyl)-1,2,4-oxadiazol-3-yl)phenyl)carbamoyl)piperidin-2-yl)methyl)pyridine-2-carboxamide] | 83 | 4 | 25
O=C(NCC1CCCCN1C(=O)Nc1ccc(-c2noc(C(F)(F)F)n2)cc1)c1ccc(-c2ccccc2)cc1 (stereo not drawn) [Example 15, 2-(((biphenyl-4-ylcarbonyl)amino)methyl)-N-(4-(5-(trifluoromethyl)-1,2,4-oxadiazol-3-yl)phenyl)piperidine-1-carboxamide] | 40 | -1 | -12
CC(=O)NCC1CCCCN1C(=O)Nc1ccc(-c2noc(C(F)(F)F)n2)cc1 (stereo not drawn) [Example 48, 2-(acetamidomethyl)-N-(4-(5-(trifluoromethyl)-1,2,4-oxadiazol-3-yl)phenyl)piperidine-1-carboxamide] | 88 | 5 | 41
O=C(NCC1CCCCN1C(=O)Nc1ccc(-c2noc(C(F)(F)F)n2)cc1)c1ccc2nccn2c1 (stereo not drawn) [Example 45, N-((1-((4-(5-(trifluoromethyl)-1,2,4-oxadiazol-3-yl)phenyl)carbamoyl)piperidin-2-yl)methyl)imidazo[1,2-a]pyridine-6-carboxamide] | 93 | 3 | 20
O=C(NCC1CCCCN1C(=O)Nc1ccc(-c2noc(C(F)(F)F)n2)cc1)c1ccc(Cl)cc1 (stereo not drawn) [Example 9, 2-(((4-chlorobenzoyl)amino)methyl)-N-(4-(5-(trifluoromethyl)-1,2,4-oxadiazol-3-yl)phenyl)piperidine-1-carboxamide] | 94 | 3 | 4
NC(=O)c1ccc(C(=O)NCC2CCCCN2C(=O)Nc2ccc(-c3noc(C(F)(F)F)n3)cc2)cc1 (stereo not drawn) [Example 22, N-((1-((4-(5-(trifluoromethyl)-1,2,4-oxadiazol-3-yl)phenyl)carbamoyl)piperidin-2-yl)methyl)terephthalamide] | 90 | 2 | 6
O=C(NCC1CCCCN1C(=O)Nc1ccc(-c2noc(C(F)(F)F)n2)cc1)c1ccncc1 (stereo not drawn) [Example 36, N-((1-((4-(5-(trifluoromethyl)-1,2,4-oxadiazol-3-yl)phenyl)carbamoyl)piperidin-2-yl)methyl)isonicotinamide] | 97 | 5 | 63
O=C(NCC1CCCCN1C(=O)Nc1ccc(-c2noc(C(F)(F)F)n2)cc1)c1cccnc1 (stereo not drawn) [Example 35, N-((1-((4-(5-(trifluoromethyl)-1,2,4-oxadiazol-3-yl)phenyl)carbamoyl)piperidin-2-yl)methyl)nicotinamide] | 96 | 4 | 58
O=C(NCC1CCCCN1C(=O)Nc1ccc(-c2noc(C(F)(F)F)n2)cc1)c1cccc(O)c1 (stereo not drawn) [Example 26, 2-(((3-hydroxybenzoyl)amino)methyl)-N-(4-(5-(trifluoromethyl)-1,2,4-oxadiazol-3-yl)phenyl)piperidine-1-carboxamide] | 94 | 2 | 42
Cc1cc(C(=O)NCC2CCCCN2C(=O)Nc2ccc(-c3noc(C(F)(F)F)n3)cc2)ccn1 (stereo not drawn) [Example 57, 2-methyl-N-((1-((4-(5-(trifluoromethyl)-1,2,4-oxadiazol-3-yl)phenyl)carbamoyl)piperidin-2-yl)methyl)isonicotinamide] | 94 | 6 | 38
CN1CCC(C(=O)NCC2CCCCN2C(=O)Nc2ccc(-c3noc(C(F)(F)F)n3)cc2)CC1 (stereo not drawn) [Example 52, 2-((((1-methylpiperidin-4-yl)carbonyl)amino)methyl)-N-(4-(5-(trifluoromethyl)-1,2,4-oxadiazol-3-yl)phenyl)piperidine-1-carboxamide] | 80 | 6 | 27
Cc1cccc(C(=O)NCC2CCCCN2C(=O)Nc2ccc(-c3noc(C(F)(F)F)n3)cc2)c1 (stereo not drawn) [Example 11, 2-(((3-methylbenzoyl)amino)methyl)-N-(4-(5-(trifluoromethyl)-1,2,4-oxadiazol-3-yl)phenyl)piperidine-1-carboxamide] | 90 | 5 | 20
Cc1ccc(C(=O)NCC2CCCCN2C(=O)Nc2ccc(-c3noc(C(F)(F)F)n3)cc2)cc1 (stereo not drawn) [Example 12, 2-(((4-methylbenzoyl)amino)methyl)-N-(4-(5-(trifluoromethyl)-1,2,4-oxadiazol-3-yl)phenyl)piperidine-1-carboxamide] | 67 | 5 | -16
